In paper PMC5573764, “Enzymatic characterization of a recombinant carbonyl reductase from Acetobacter sp. CCTCC M209061” (Bioresources and Bioprocessing, 2017):
Blank lines part the entries; values can stand above or below the molecule they belong to.

How the values were obtained:
Assay type in all cases: biochemical, Acetobacter sp. CCTCC M209061
[1] = biological target: T1, AcCR (recombinant carbonyl reductase; GAcCR) (Acetobacter sp., UniProt A0A2S1GUX7); test: NADH formation at […] nm, initial rates; settings: 45 °C, optimum conditions (pH 8.0 in assay method, optimum 8.5), GST-tagged enzyme
T1 construct: N-terminal GST fusion from pGEX-2T, tag kept, about 53 kDa on SDS-PAGE; E. coli BL21(DE3)pLysS
T1 sequence (A0A2S1GUX7 1-253): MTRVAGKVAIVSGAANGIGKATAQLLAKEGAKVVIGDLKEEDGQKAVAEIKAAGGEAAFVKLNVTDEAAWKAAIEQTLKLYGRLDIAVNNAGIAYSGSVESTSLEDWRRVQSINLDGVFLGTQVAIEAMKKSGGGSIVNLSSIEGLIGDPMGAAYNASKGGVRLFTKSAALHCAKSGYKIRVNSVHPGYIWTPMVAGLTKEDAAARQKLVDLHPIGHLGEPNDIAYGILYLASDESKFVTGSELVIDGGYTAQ

[2] = biological target: T1, AcCR (recombinant carbonyl reductase; GAcCR); test: NADH absorbance at […] nm, initial rates; settings: pH 6.5, 35 °C (optimum conditions), GST-tagged enzyme
[3] = biological target: T1, AcCR (recombinant carbonyl reductase; GAcCR); test: NADPH formation at […] nm, initial rates; settings: oxidation of isopropanol; 45 °C; optimum conditions (pH 8.0 in assay method); GST-tagged enzyme

Km ([1]; oxidation of isopropanol): 380 µM
Structure (SMILES): NC(=O)c1ccc[n+]([C@@H]2O[C@H](COP(=O)(O)OP(=O)(O)OC[C@H]3O[C@@H](n4cnc5c(N)ncnc54)[C@H](O)[C@@H]3O)[C@@H](O)[C@H]2O)c1 [NAD^+]

Km ([1]; co-substrate NAD+): 23800 µM
Structure (SMILES): CC(C)O [Isopropanol]

Km ([2]; reduction of 4'-chloroacetophenone): 160 µM
Structure (SMILES): NC(=O)C1=CN([C@@H]2O[C@H](COP(=O)(O)OP(=O)(O)OC[C@H]3O[C@@H](n4cnc5c(N)ncnc54)[C@H](O)[C@@H]3O)[C@@H](O)[C@H]2O)C=CC1 [NADH]

Structure (SMILES): CC(=O)c1ccc(Cl)cc1 [4′-Chloroacetophenone]
Km ([2]; co-substrate NADH): 260 µM

Km [3]: 1390 µM
Structure (SMILES): NC(=O)c1ccc[n+]([C@@H]2O[C@H](COP(=O)(O)OP(=O)(O)OC[C@H]3O[C@@H](n4cnc5c(N)ncnc54)[C@H](OP(=O)(O)O)[C@@H]3O)[C@@H](O)[C@H]2O)c1 [NADP^+]
